Results reported in US20260274853A1, “BIFUNCTIONAL COMPOUNDS CONTAINING PYRIMIDINE DERIVATIVES FOR DEGRADING CYCLIN-DEPENDENT KINASE 2 VIA UBIQUITIN PROTEASOME PATHWAY” (NIKANG THERAPEUTICS, INC., priority 2022, published 2026).

Tests used:
CDK2 [1] = molecular target: T1, CDK2 (Homo sapiens, UniProt P24941); experiment: Inhibition of CDK2: phospho-Rb (S807/811) HTRF measurement in OVCAR3 cells; assay type: cell-based; settings: 24 h compound treatment, read-out: pRb (nM), IC50 in pRB(S807/811) assay
T1 construct: High-Throughput Measurement of Cellular Endogenous CDK2; endogenous in cells; host or cells: OVCAR3

CDK2 [2] = molecular target: T1, CDK2; experiment: CDK2 HTRF assay: cellular endogenous CDK2 level in OVCAR3 cells; assay type: cell-based; settings: 24 hours compound treatment, read-out: DC50 (half maximal degradation concentration of CDK2)
Summary of the method: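 Endogenous CDK2 degradation in OVCAR3 cells after 24 h compound treatment at 0.3–10,000 nM. Lysates assayed with an HTRF total-CDK2 two-antibody kit, TR-FRET 665/620 ratio normalized to DMSO. DC50 from four-parameter logistic fit, reported as potency bins.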

IC50 (CDK2 [1]) [nM] | DC50 (CDK2 [2]) [nM] | SMILES
< 100 | < 100 | Cn1nc(N2CCC(=O)NC2=O)c2ccc(C3CCN(C(c4cccc(S(=O)(=O)N5CCC(Nc6ncc(C(F)(F)F)c(-c7cnn(CC(F)(F)F)c7)n6)CC5)c4)C(F)F)CC3)cc21 (stereo not shown) [Example 84, 1-(6-(1-(2,2-difluoro-1-(3-((4-((4-(1-(2,2,2-trifluoroethyl)-1H-pyrazol-4-yl)-5-(trifluoromethyl)pyrimidin-2-yl)amino)-piperidin-1-yl)sulfonyl)-phenyl)ethyl)-piperidin-4-yl)-1-methyl-1H-indazol-3-yl)dihydropyrimidine-2,4(1H,3H)-dione]
< 100 | < 100 | Cn1nc(N2CCC(=O)NC2=O)c2ccc(N3CCN(CC4CCN(S(=O)(=O)N5CCC(Nc6ncc(C(F)(F)F)c(-c7cnn(CC(F)(F)F)c7)n6)CC5)CC4)CC3)cc21 [Example 86, 1-(1-methyl-6-(4-((1-((4-((4-(1-(2,2,2-trifluoroethyl)-1H-pyrazol-4-yl)-5-(trifluoromethyl)pyrimidin-2-yl)-amino)piperidin-1-yl)sulfonyl)-piperidin-4-yl)methyl)piperazin-1-yl)-1H-indazol-3-yl)dihydropyrimidine-2,4(1H,3H)-dione]
< 100 | < 100 | Cn1nc(N2CCC(=O)NC2=O)c2ccc(C3CCN(CC4CCN(S(=O)(=O)N5CCC(Nc6ncc(C(F)(F)F)c(-c7cnn(CC(F)(F)F)c7)n6)CC5)C4)CC3)cc21 (stereo not shown) [Example 88, 1-(1-methyl-6-(1-((1-((4-((4-(1-(2,2,2-trifluoroethyl)-1H-pyrazol-4-yl)-5-(trifluoromethyl)pyrimidin-2-yl)amino)-piperidin-1-yl)sulfonyl)-pyrrolidin-3-yl)methyl)piperidin-4-yl)-1H-indazol-3-yl)dihydropyrimidine-2,4(1H,3H)-dione]
< 100 | < 100 | Cn1nc(N2CCC(=O)NC2=O)c2ccc(C3CCN(CC4CCCC(S(=O)(=O)N5CCC(Nc6ncc(C(F)(F)F)c(-c7cnn(CC(F)(F)F)c7)n6)CC5)C4)CC3)cc21 (stereo not shown) [Example 89, 1-(1-methyl-6-(1-((3-((4-((4-(1-(2,2,2-trifluoroethyl)-1H-pyrazol-4-yl)-5-(trifluoromethyl)pyrimidin-2-yl)amino)-piperidin-1-yl)sulfonyl)-cyclohexyl)-methyl)piperidin-4-yl)-1H-indazol-3-yl)dihydropyrimidine-2,4(1H,3H)-dione]
< 100 | < 100 | Cn1nc(N2CCC(=O)NC2=O)c2ccc(C3CCN(CC(C)(C)c4cccc(S(=O)(=O)N5CCC(Nc6ncc(C(F)(F)F)c(-c7cnn(CC(F)(F)F)c7)n6)CC5)c4)CC3)cc21 [Example 90, 1-(1-methyl-6-(1-(2-methyl-2-(3-((4-((4-(1-(2,2,2-trifluoroethyl)-1H-pyrazol-4-yl)-5-(trifluoromethyl)-pyrimidin-2-yl)-amino)piperidin-1-yl)sulfonyl)phenyl)-propyl)piperidin-4-yl)-1H-indazol-3-yl)-dihydro-pyrimidine-2,4(1H,3H)-dione]
< 100 | < 100 | Cn1nc(N2CCC(=O)NC2=O)c2ccc(N3CCC(CN4CCC(S(=O)(=O)N5CCC(Nc6ncc(C(F)(F)F)c(-c7cnn(CC(F)(F)F)c7)n6)CC5)CC4)CC3)cc21 [Example 92, 1-(1-methyl-6-(4-((4-((4-((4-(1-(2,2,2-trifluoroethyl)-1H-pyrazol-4-yl)-5-(trifluoromethyl)pyrimidin-2-yl)amino)-piperidin-1-yl)sulfonyl)-piperidin-1-yl)methyl)piperidin-1-yl)-1H-indazol-3-yl)dihydropyrimidine-2,4(1H,3H)-dione]
< 100 | < 100 | CC(Cc1cccc(S(=O)(=O)N2CCC(Nc3ncc(C(F)(F)F)c(-c4cnn(CC(F)(F)F)c4)n3)CC2)c1)N1CCC(c2ccc3c(N4CCC(=O)NC4=O)nn(C)c3c2)CC1 (stereo not shown) [Example 93, 1-(1-methyl-6-(1-(1-(3-((4-((4-(1-(2,2,2-trifluoroethyl)-1H-pyrazol-4-yl)-5-(trifluoromethyl)pyrimidin-2-yl)amino)-piperidin-1-yl)sulfonyl)-phenyl)propan-2-yl)piperidin-4-yl)-1H-indazol-3-yl)dihydropyrimidine-2,4(1H,3H)-dione]
< 100 | < 100 | CC(Cc1cccc(S(=O)(=O)N2CCC(Nc3ncc(C(F)(F)F)c(-c4cnn(-c5ccccc5F)c4)n3)CC2)c1)N1CCC(c2ccc3c(N4CCC(=O)NC4=O)nn(C)c3c2)CC1 (stereo not shown) [Example 96, 1-(6-(1-(1-(3-((4-((4-(1-(2-fluoro-phenyl)-1H-pyrazol-4-yl)-5-(trifluoro-methyl)pyrimidin-2-yl)amino)-piperidin-1-yl)sulfonyl)phenyl)propan-2-yl)-piperidin-4-yl)-1-methyl-1H-indazol-3-yl)dihydropyrimidine-2,4(1H,3H)-dione]
